Assays:
Experiment in all cases: Holoreceptor transactivation assay
Assay type in all cases: cell-based
RXRα = biological target: T1, RXRα (Homo sapiens, UniProt P19793); settings: relative to all trans retinoic acid; read-out: Transactivation Assay Efficacy (% of RA activity) RXRα
T1 construct: expressed in transfected cells; host or cells: CV1 cells
T1 sequence (P19793 1-462): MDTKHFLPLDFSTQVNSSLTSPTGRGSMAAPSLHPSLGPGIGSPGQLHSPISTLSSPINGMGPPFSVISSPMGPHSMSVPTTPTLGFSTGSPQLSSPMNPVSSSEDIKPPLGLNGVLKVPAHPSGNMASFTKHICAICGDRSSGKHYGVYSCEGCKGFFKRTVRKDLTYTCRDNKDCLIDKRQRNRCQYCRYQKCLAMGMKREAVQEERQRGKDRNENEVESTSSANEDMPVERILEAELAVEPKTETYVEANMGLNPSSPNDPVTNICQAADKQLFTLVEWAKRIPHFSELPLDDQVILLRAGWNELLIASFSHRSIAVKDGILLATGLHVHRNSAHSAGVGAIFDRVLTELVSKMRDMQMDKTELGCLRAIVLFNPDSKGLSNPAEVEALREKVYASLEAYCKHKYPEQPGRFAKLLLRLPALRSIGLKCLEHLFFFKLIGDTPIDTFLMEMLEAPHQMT
Description: (§1) A holoreceptor transactivation assay and a ligand binding assay which measure the antagonist/agonist like activity of the compounds of the invention, or their ability to bind to the several retinoid receptor subtypes, respectively, are described in published PCT Application No. WO93/11755 (particularly on pages 30-33 and 37-41) published on Jun. 24, 1993, the specification of which is also incorporated herein by reference. A description of the holoreceptor transactivation assay is also provided below.
(§2) CV1 cells (5,000 cells/well) were transfected with an RAR reporter plasmid MTV-TREp-LUC (50 ng) along with one of the RAR expression vectors (10 ng) in an automated 96-well format by the calcium phosphate procedure of Heyman et al. Cell 68: 397-406. For RXR-α and RXR-γ transactivation assays, an RXR-responsive reporter plasmid CRBPII-tk-LUC (50 ng) along with the appropriate RXR expression vectors (10 ng) was used substantially as described by Heyman et al. above, and Allegretto et al. J. Biol. Chem. 268: 26625-26633. For RXR-β transactivation assays, an RXR-responsive reporter plasmid CPRE-tk-LUC ([…]) along with RXR-β expression vector ([…]) was used as described in above. These reporters contain DRI elements from human CRBPII and certain DRI elements from promotor, respectively (see Mangelsdorf et al. The Retinoids: Biology Chemistry and Medicine, pp. 319-349, Raven Press Ltd., New York and Heyman et al., cited above). A β-galactosidase (50 ng) expression vector was used as an internal control in the transfections to normalize for variations in transfection efficiency. The cells were transfected in triplicate for 6 hours, followed by incubation with retinoids for 36 hours, and the extracts were assayed for luciferase and […] activities. The detailed experimental procedure for holoreceptor transactivations has been described in Heyman et al. above, and Allegretto et al. cited above. The results obtained in this assay are expressed in EC50 numbers, as they are also in the chimeric receptor transactivation assay. The Heyman et al. Cell 68: 397-406, Allegretto et al. J. Biol. Chem. 268: 26625-26633, and Mangelsdorf et al. The Retinoids: Biology, Chemistry, and Medicine, pp. 319-349, Raven Press Ltd., New York, are expressly incorporated herein by reference. The results of ligand binding assay are expressed in Kd numbers. (See Cheng et al. Biochemical Pharmacology 22: 3099-3108, expressly incorporated herein by reference.)

RXRβ = settings: relative to all trans retinoic acid
Description: as §1, §2

RXRγ = biological target: T2, RXRγ (Mus musculus, UniProt P28705); settings: relative to all trans retinoic acid; read-out: Transactivation Assay Efficacy (% of RA activity) RXRγ
T2 construct: expressed in transfected cells; host or cells: CV1 cells
T2 sequence (P28705 1-463): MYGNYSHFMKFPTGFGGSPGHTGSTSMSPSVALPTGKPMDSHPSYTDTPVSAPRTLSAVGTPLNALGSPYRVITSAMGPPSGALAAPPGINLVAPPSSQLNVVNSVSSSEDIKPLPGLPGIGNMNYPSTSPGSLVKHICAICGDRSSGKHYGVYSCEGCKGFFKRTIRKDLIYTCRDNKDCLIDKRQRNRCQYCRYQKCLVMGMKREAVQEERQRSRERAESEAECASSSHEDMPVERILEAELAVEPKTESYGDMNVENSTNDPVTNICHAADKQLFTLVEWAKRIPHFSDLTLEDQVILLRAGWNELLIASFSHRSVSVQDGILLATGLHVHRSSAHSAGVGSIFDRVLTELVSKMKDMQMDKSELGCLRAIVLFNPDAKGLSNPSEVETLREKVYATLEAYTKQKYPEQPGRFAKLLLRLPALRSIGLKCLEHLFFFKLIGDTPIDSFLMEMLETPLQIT
Description: as §1, §2

RARβ = biological target: T3, RARβ (Homo sapiens, UniProt P10826); set-up: expressed in transfected cells; host or cells: CV1 cells; settings: relative to all trans retinoic acid; read-out: Transactivation Assay Efficacy (% of RA activity) RARβ
T3 sequence (P10826 1-448 isoform P10826-2): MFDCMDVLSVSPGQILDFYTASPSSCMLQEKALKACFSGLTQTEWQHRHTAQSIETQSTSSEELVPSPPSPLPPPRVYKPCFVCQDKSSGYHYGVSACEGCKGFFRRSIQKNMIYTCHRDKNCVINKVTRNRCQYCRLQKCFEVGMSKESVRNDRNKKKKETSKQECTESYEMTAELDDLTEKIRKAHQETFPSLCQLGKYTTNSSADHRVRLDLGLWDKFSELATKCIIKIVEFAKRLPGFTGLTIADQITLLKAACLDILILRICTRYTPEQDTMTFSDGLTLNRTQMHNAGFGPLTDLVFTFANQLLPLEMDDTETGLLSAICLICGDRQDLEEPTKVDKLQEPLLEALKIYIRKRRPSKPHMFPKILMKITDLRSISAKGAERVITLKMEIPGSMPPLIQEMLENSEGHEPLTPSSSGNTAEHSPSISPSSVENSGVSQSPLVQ
Description: as §1, §2
A compound should not cause significant activation of a reporter gene through a given receptor subtype (RAR-α, RAR-β or RAR-γ) in the holoreceptor transactivation assay, in order to qualify as an RAR antagonist with utility in the present invention.

SMILES | Emax (RXRα) [%] | Emax (RXRγ) [%] | Emax (RARβ) [%] | Transactivation Assay Efficacy (% of RA activity) RXRβ (RXRβ)
Cc1ccc(C2=CCC(C)(C)c3ccc(C#Cc4ccc(C(=O)O)cc4)cc32)cc1 [Compound 60, 4-[(5,6-dihydro-5,5-dimethyl-8-(4-methylphenyl)-2-naphthalenyl)ethynyl]benzoic acid] | 3 | 3 | 1 | 0.00 % of RA activity
Cc1ccc(C2=CCC(C)(C)c3ccc(C(=S)Nc4ccc(C(=O)O)c(F)c4)cc32)cc1 [Compound 63, 2-fluoro-4-[[(5,6-dihydro-5,5-dimethyl-8-(4-methylphenyl)-2-naphthalenyl)thiocarbonyl]amino]-benzoic acid] | 1 | 1 | 2 | 0.00 % of RA activity
CC(/C=C/C=C(\C)c1ccc2c(c1)C(c1ccc(C)cc1)=CCC2(C)C)=C\C(=O)O [Compound 52, (E,E,E)-3-methyl-7-(5,6-dihydro-5,5-dimethyl-8-(4-methylphenyl)-2-naphthalenyl)-2,4,6-octatrienoic acid] | 0 | 10 | 15 | 0.00 % of RA activity
Cc1ccc(C2=CCC(C)(C)c3ccc(C(=O)Nc4ccc(C(=O)O)c(F)c4)cc32)cc1 [Compound 41, 2-Fluoro-4-[[(5,6-dihydro-5,5-dimethyl-8-(4methylphenyl)-2-naphthalenyl)carbonyl]amino]-benzoic acid] | 1 | 3 | 5 | 0.00 % of RA activity
CC1(C)CC=C(c2ccccc2)c2ccc(C(=O)C=Cc3ccc(C(=O)O)cc3)cc21 [Compound 103, 4-[3-oxo-3-(7,8-dihydro-5-phenyl-8,8-dimethyl-2-naphthalenyl)-1-propenyl]-benzoic acid] | 0 | 2 | 12 | 0.0 % of RA activity
Cc1ccc(C2=CCC(C)(C)c3ccc(C(=O)Nc4ccc(C(=O)O)cc4)cc32)cc1 [Compound 36, 4-[[(5,6-Dihydro-5,5-dimethyl-8-(4-methylphenyl)-2-naphthalenyl)carbonyl]amino]-benzoic acid] | 1 | 2 | 5 | 7.00 % of RA activity
Cc1ccc(C2=CCC(C)(C)c3ccc(C(=O)Oc4ccc(C(=O)O)cc4)cc32)cc1 [Compound 39, 4-[[(5,6-Dihydro-5,5-dimethyl-8-(4-methylphenyl)-2-naphthalenyl)carbonyl]oxy]-benzoic acid] | 2 | 1 | 7 | 0.00 % of RA activity

Second part, led by results:

Emax (RXRα) [%] | Emax (RXRγ) [%] | Emax (RARβ) [%] | SMILES | Transactivation Assay Efficacy (% of RA activity) RXRβ (RXRβ)
1 | 4 | 6 | CC1(C)CC=C(c2ccc(C(F)(F)F)cc2)c2cc(C#Cc3ccc(C(=O)O)cc3)ccc21 [Compound 23, 4-[(5,6-Dihydro-5,5-dimethyl-8-(4-trifluoromethylphenyl)-2-naphthalenyl)ethynyl]benzoic acid] | 0.00 % of RA activity
2 | 4 | 14 | Cc1ccccc1C1=CCC(C)(C)c2ccc(C#Cc3ccc(C(=O)O)cc3)cc21 [Compound 27, 4-[(5,6-Dihydro-5,5-dimethyl-8-(2-methylphenyl)-2-naphthalenyl)ethynyl]benzoic acid] | 0.00 % of RA activity
2 | 4 | 5 | Cc1ccc(C2=CCC(C)(C)c3ccc(N=Nc4ccc(C(=O)O)cc4)cc32)cc1 [Compound 46b, 4-[(5,6-dihydro-5,5-dimethyl-8-(4-methylphenyl)-2-naphthalenyl)azo]-benzoic acid] | 0.00 % of RA activity
3 | 0 | 0 | Cc1ccc(C2=CCC(C)(C)c3ccc(/C=C/c4ccc(C(=O)O)cc4)cc32)cc1 [Compound 45] | 8.00 % of RA activity
1 | 3 | 7 | Cc1cc(C)cc(C2=CCC(C)(C)c3ccc(C#Cc4ccc(C(=O)O)cc4)cc32)c1 [Compound 24, 4-[(5 6-Dihydro-5,5-dimethyl-8-(3,5-dimethylphenyl)-2-naphthalenyl)ethynyl]benzoic acid] | 0.00 % of RA activity
4 | 3 | 4 | Cc1cccc(C2=CCC(C)(C)c3ccc(C#Cc4ccc(C(=O)O)cc4)cc32)c1 [Compound 20, 4-[(5,6-Dihydro-5,5-dimethyl-8-(3-methylphenyl)-2-naphthalenyl)ethynyl]benzoic acid] | 0.00 % of RA activity
0 | 4 | 5 | CC1(C)CC=C(c2ccccn2)c2cc(C#Cc3ccc(C(=O)O)cc3)ccc21 [Compound 19, 4-[(5,6-Dihydro-5,5-dimethyl-8-(2-pyridyl)-2-naphthalenyl)ethynyl]benzoic acid] | 9.0 % of RA activity
1 | 3 | 5 | Cc1ccc(C2=CCC(C)(C)c3ccc(C#Cc4ccc(C(=O)O)cc4)cc32)s1 [Compound 34, 4-[(5,6-Dihydro-5,5-dimethyl-8-(5-methyl-2-thienyl)-2-naphthalenyl)ethynyl]benzoic acid] | 0.00 % of RA activity
